Assay results as given in the supplement of paper PMC10307832.

Columns and labels:
Assay in all cases: relative viability (nuclei count vs DMSO), 5 days (fraction); higher = more cells survive
[1] = compound: C(C(=O)C(=O)O)Br [Bromopyruvate] + CC(=O)c1c(C)c2cnc(Nc3ccc(N4CCNCC4)cn3)nc2n(C2CCCC2)c1=O [Palbociclib] (partner 0.5 µM)
How it was run: (§1)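 One day after seeding in 1536-well plates, lung cancer cell lines were dosed by pin tool. Dosing was either single-drug or a fixed anchor-drug dose plus five library-drug doses (not always all listed) in √10 steps. After 5 days, nuclei were stained in one fix-and-stain step and counted on 4× images, and relative viability is the nuclei count of treated wells over that of vehicle wells, given as the median of duplicate plates.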

[2] = compound: CC(O)(CS(=O)(=O)c1ccc(F)cc1)C(=O)Nc1ccc(C#N)c(C(F)(F)F)c1 [Bicalutamide] + CS(=O)(=O)N1CCN(Cc2cc3nc(-c4cccc5[nH]ncc45)nc(N4CCOCC4)c3s2)CC1 [Pictilisib] (partner 1 µM)
How it was run: as §1

[3] = compound: CC(O)(CS(=O)(=O)c1ccc(F)cc1)C(=O)Nc1ccc(C#N)c(C(F)(F)F)c1 [Bicalutamide] + Nc1nc2[nH]cc(CCc3ccc(C(=O)N[C@@H](CCC(=O)O)C(=O)O)cc3)c2c(=O)[nH]1 [Pemetrexed] (partner 0.2 µM)
How it was run: as §1

[4] = compound: C(C(=O)C(=O)O)Br [Bromopyruvate] + Cc1nc(NC(=O)N2CCC[C@H]2C(N)=O)sc1-c1ccnc(C(C)(C)C(F)(F)F)c1 [Alpelisib] (partner 2 µM)
How it was run: as §1

| Cell Line | relative viability ([1]; first compound 1 µM) | relative viability ([1]; first compound 3.162 µM) | relative viability ([1]; first compound 10 µM) | relative viability ([1]; first compound 31.62 µM) | relative viability ([1]; first compound 100 µM) | relative viability ([2]; first compound 0.08 µM) | relative viability ([2]; first compound 0.253 µM) | relative viability ([2]; first compound 0.8 µM) | relative viability ([2]; first compound 2.53 µM) | relative viability ([3]; first compound 0.08 µM) | relative viability ([3]; first compound 0.253 µM) | relative viability ([3]; first compound 0.8 µM) | relative viability ([3]; first compound 2.53 µM) | relative viability ([4]; first compound 1 µM) | relative viability ([4]; first compound 3.162 µM) | relative viability ([4]; first compound 10 µM) | relative viability ([4]; first compound 31.62 µM) | relative viability ([4]; first compound 100 µM) |
| --- | --- | --- | --- | --- | --- | --- | --- | --- | --- | --- | --- | --- | --- | --- | --- | --- | --- | --- |
| NCI-H838 | 0.19 | 0.251 | 0.229 | 0.237 | 0.242 | 0.589 | 0.415 | 0.524 | 0.324 | 0.272 | 0.232 | 0.261 | 0.243 | 1.01 | 0.983 | 1.01 | 0.981 | 1.13 |
| NCI-H2126 | 0.34 | 0.335 | 0.306 | 0.375 | 0.343 | 0.494 | 0.468 | 0.511 | 0.43 | 0.675 | 0.597 | 0.785 | 0.638 | 0.796 | 0.755 | 0.768 | 0.751 | 0.744 |
| BEN | 0.457 | 0.449 | 0.505 | 0.497 | 0.486 | 0.589 | 0.472 | 0.713 | 0.632 | 0.854 | 0.74 | 1.15 | 0.837 | 0.985 | 1.05 | 1.15 | 0.957 | 1.07 |
| LCLC-103H | 0.505 | 0.486 | 0.455 | 0.415 | 0.528 | 0.692 | 0.444 | 0.673 | 0.544 | 0.446 | 0.408 | 0.469 | 0.462 | 0.981 | 0.938 | 1.01 | 0.95 | 0.985 |
| EKVX | 0.217 | 0.387 | 0.459 | 0.494 | 0.44 | 0.456 | 0.366 | 0.434 | 0.455 | 0.378 | 0.335 | 0.392 | 0.391 | 0.875 | 0.815 | 1.01 | 0.86 | 0.943 |
| LXF-289 | 0.625 | 0.649 | 0.629 | 0.637 | 0.638 | 0.759 | 0.728 | 0.855 | 0.757 | 0.929 | 0.815 | 0.916 | 0.949 | 1.07 | 1.03 | 1.04 | 1.03 | 1.08 |
| NCI-H661 | 0.401 | 0.387 | 0.378 | 0.403 | 0.428 | 0.433 |  | 0.494 | 0.407 | 0.939 | 0.965 | 0.942 | 0.896 | 0.693 | 0.628 | 0.601 | 0.588 | 0.657 |
| NCI-H2087 | 0.222 | 0.232 | 0.19 | 0.221 | 0.227 | 0.84 | 0.891 | 1.05 | 0.835 | 0.684 | 0.662 | 0.695 | 0.613 | 1.03 | 1.14 | 1.02 | 1.25 | 0.829 |
| NCI-H1793 | 0.291 | 0.354 | 0.325 | 0.365 | 0.341 | 0.285 | 0.208 | 0.415 | 0.281 | 0.914 |  | 1.07 | 0.907 | 0.659 | 0.715 | 0.751 | 0.697 | 0.702 |
| LC-2-ad | 0.528 | 0.487 | 0.466 | 0.488 | 0.499 | 0.536 | 0.459 | 0.637 | 0.502 | 0.268 | 0.256 | 0.275 | 0.267 | 0.925 | 0.919 | 0.839 | 0.938 | 0.893 |
| COR-L 105 | 0.404 | 0.396 | 0.415 | 0.374 | 0.429 | 0.372 | 0.324 | 0.394 | 0.303 | 1.25 | 1.19 | 1.08 | 1.05 | 0.975 | 1.34 | 1.23 | 1.02 | 0.768 |
| NCI-H1355 | 0.388 | 0.401 | 0.356 | 0.373 | 0.407 | 0.413 | 0.316 | 0.441 | 0.485 | 1.04 | 0.992 | 1.1 | 0.999 | 0.833 | 0.961 | 0.774 | 0.872 | 0.903 |
| H3255 | 0.314 | 0.31 | 0.297 | 0.308 | 0.309 | 0.521 | 0.376 | 0.48 | 0.462 | 0.584 | 0.536 | 0.62 | 0.571 | 0.765 | 0.647 | 0.86 | 0.856 | 0.783 |
| NCI-H2009 | 0.208 | 0.214 | 0.227 | 0.179 | 0.0903 | 1.2 | 0.944 | 1.06 | 0.737 | 1.13 | 1.04 | 1.11 | 0.91 | 1.11 | 1.15 | 1.21 | 1.07 | 1.01 |
| NCI-H1734 | 0.349 | 0.378 | 0.39 | 0.34 | 0.295 | 0.438 | 0.388 | 0.593 | 0.431 | 0.428 | 0.405 | 0.455 | 0.393 | 0.624 | 0.728 | 0.684 | 0.663 | 0.704 |
| HOP-62 | 0.432 | 0.443 | 0.416 | 0.343 | 0.341 | 0.971 | 0.806 | 0.998 | 0.614 | 0.371 | 0.289 | 0.277 | 0.327 | 0.696 | 1.06 |  | 0.426 | 0.698 |
| LOU-NH91 | 0.53 | 0.545 | 0.494 | 0.544 | 0.587 | 0.537 | 0.471 | 0.549 | 0.491 | 0.429 | 0.379 | 0.39 | 0.378 | 0.764 | 0.732 | 0.721 | 0.775 | 0.868 |
| NCI-H23 | 0.466 | 0.482 | 0.601 | 0.572 | 0.387 | 0.476 | 0.446 | 0.633 | 0.378 | 0.52 | 0.528 | 0.854 | 0.578 | 0.607 | 0.669 | 0.68 | 0.46 | 0.43 |
| PC-3 [JPC-3] | 0.548 |  | 0.537 |  | 0.536 | 0.76 | 0.56 | 0.822 | 0.723 | 1.08 | 1.11 | 1.41 | 1.12 | 1.06 | 1.01 | 1.01 | 1.06 | 1.03 |
| NCI-H1437 | 0.342 | 0.285 | 0.323 | 0.314 | 0.305 | 0.475 | 0.381 | 0.419 | 0.451 | 0.312 | 0.303 | 0.349 | 0.316 | 0.967 | 1.06 | 1.21 | 0.911 | 0.989 |
| NCI-H520 | 0.235 | 0.209 | 0.228 | 0.232 | 0.267 | 0.516 | 0.254 | 0.281 | 0.335 | 0.846 | 0.635 | 0.81 | 0.635 | 0.844 | 1.08 | 0.884 | 0.896 | 0.875 |
| NCI-H1666 | 0.618 | 0.632 | 0.64 | 0.622 | 0.599 | 0.392 | 0.404 | 0.477 | 0.406 | 0.886 | 0.865 | 0.894 | 0.879 | 1.21 | 1.07 | 1.11 | 1.02 | 0.774 |
| NCI-H1651 | 0.479 | 0.477 | 0.542 | 0.519 | 0.492 | 0.618 | 0.429 | 0.686 | 0.471 | 0.597 | 0.525 | 0.672 | 0.618 | 0.881 | 1.06 | 0.876 | 0.868 | 0.912 |
| NCI-H1755 | 0.477 | 0.43 | 0.45 | 0.431 | 0.456 | 0.476 | 0.378 | 0.523 | 0.279 | 0.386 | 0.379 | 0.434 | 0.477 | 0.95 | 0.925 | 0.968 | 0.963 | 0.97 |
| HARA | 0.254 | 0.283 | 0.296 | 0.259 | 0.261 | 0.462 | 0.413 | 0.566 | 0.316 | 0.233 |  | 0.299 | 0.251 | 0.792 | 0.868 | 1.04 | 0.802 | 0.858 |
| NCI-H647 | 0.4 | 0.312 | 0.466 | 0.386 | 0.506 | 0.358 | 0.348 | 0.643 | 0.339 | 0.187 | 0.172 | 0.172 | 0.151 | 1.12 | 1.15 | 1.46 | 1.48 | 1.2 |
| NCI-H2347 | 0.44 | 0.493 | 0.399 | 0.405 | 0.448 | 0.735 | 0.728 | 0.876 | 0.632 | 0.463 | 0.444 | 0.453 | 0.445 | 1.07 | 1.16 | 1.38 | 0.849 | 1.13 |
| LCLC-97TM1 | 0.203 | 0.21 | 0.276 | 0.239 | 0.214 | 0.256 | 0.206 | 0.228 | 0.199 | 0.169 | 0.173 | 0.203 | 0.181 |  |  | 0.272 | 0.302 | 0.183 |
| EPLC-272H | 0.321 | 0.372 | 0.386 | 0.31 | 0.362 | 0.311 | 0.266 | 0.329 | 0.33 | 0.424 | 0.322 | 0.359 | 0.207 | 1.05 | 1.17 | 0.941 | 0.806 | 1.04 |
| NCI-H1915 | 0.524 | 0.532 | 0.538 | 0.514 | 0.56 | 0.91 | 0.782 | 1 | 0.775 | 0.509 | 0.516 | 0.481 | 0.48 | 1.03 | 1.05 | 1.04 | 1.12 | 1.08 |
